Assay: Affinity capillary electrophoresis (ACE), pH 7.4
Conditions: 30 mM phosphate buffer pH 7.4, 25 °C, 15 kV
Source text: To assess the CD complex formation capability of the five cathinone derivatives, we devised a screening ACE method tailored to closely mimic physiological conditions. In a preliminary study, the ACE conditions were optimized regarding the type, pH, and concentration of the background electrolyte, the applied voltage, and the injection parameters. […] In order to avoid high Joule heat generation, sufficiently low voltage should be used; thus, after registering the Ohm plot (I-U plot), it was set to 15 kV. Throughout our ACE measurements, corrections for viscosity and ionic strength were systematically implemented to ensure precise determination of complex stability constants.
The CE experiments were performed on a HP ^3DCE and on an Agilent 7100 instrument (Agilent Technologies, Waldbronn, Germany) equipped with a photodiode array detector and the Chemstation software for data handling. Untreated fused silica capillaries (50 µm id, 48.5 cm total, 40 cm effective length) were purchased from Agilent. Conditioning of new capillary was conducted by flushing with 1 M NaOH followed by 0.1 M NaOH and water for 30 min each. Prior to all runs, the capillary was preconditioned by rinsing with BGE (2 min). The temperature of the capillary was set to 25 °C. UV detection was performed at 215 nm, and 15–25 kV voltage was applied. Samples were injected hydrodynamically (150 mbar·sec, optimized in the 50–500 mbar·sec range). The CE-pH measurements were carried out applying 25 kV voltage and 200 mbar·sec injection.
The background electrolyte of the CE-pH measurements contained 25 mM Na2HPO4 and 25 mM Na2B4O7, and the appropriate pH was adjusted with hydrochloric acid. During the ACE measurements, 30 mM phosphate buffer pH 7.4 (30 mM Na2HPO4—NaOH) was used. The running buffer was 20 mM acetic acid adjusting with 1 M Tris the pH to 4.5 during the chiral screening experiments. The BGEs contained CDs at various concentrations (0.25–20 mM) in the ACE experiments and 1-5-10 mM in the chiral method optimization experiments.
Stock solutions of each cathinone analog (mephedrone, flephedrone, 4-MEC, butylone, and MDPV) were prepared separately in methanol (1 mg/ml), and appropriate dilutions with water were used to prepare sample solutions for the CE-pH titration and for the ACE studies applying DMSO as EOF marker, while their mixture was used during the chiral separation studies.
The simplest way to determine the mobility is from the migration times (tmax) read from the electropherograms from which the apparent mobility could be calculated, but more accurate mobility values could be obtained by the determination with the Haarhoff–van der Linde (HVL) function based on Equation (2). (2) HVLδ(t;a0,a1,a2,a3δ)=a0/a2a3δ2πexp[−1/2(t−a1/a2)^2]/1/exp(a3δ)−1+1/2[1+erf(t−a1/2a2)] where a0 is the area of the HVL function, a1 is the position of the Gaussian component, a2 is the standard deviation of the Gaussian component, and a3δ is the peak shape distortion. The application of the HVL function is necessary in the case of accurate ACE measurements because, in several cases, the peaks are distorted due to the complex formation, which makes reading the migration times and calculating the mobility more difficult and imprecise.
The most popular technique for quantifying the analyte–ligand interaction with CE is mobility shift ACE.

Compound	4-MEC–CD complex stability constant, Kstab/Kstab1 (unresolved or first migrating enantiomer) [M⁻¹]	Butylone–CD complex stability constant, Kstab/Kstab1 (unresolved or first migrating enantiomer) [M⁻¹]	Flephedrone–CD complex stability constant, Kstab/Kstab1 (unresolved or first migrating enantiomer) [M⁻¹]	MDPV–CD complex stability constant, Kstab/Kstab1 (unresolved or first migrating enantiomer) [M⁻¹]	Mephedrone–CD complex stability constant, Kstab/Kstab1 (unresolved or first migrating enantiomer) [M⁻¹]	MDPV–CD complex stability constant, Kstab2 (second migrating enantiomer) [M⁻¹]	4-MEC–CD complex stability constant, Kstab2 (second migrating enantiomer) [M⁻¹]	Mephedrone–CD complex stability constant, Kstab2 (second migrating enantiomer) [M⁻¹]	Butylone–CD complex stability constant, Kstab2 (second migrating enantiomer) [M⁻¹]
COC[C@H]1O[C@@H]2O[C@H]3[C@H](OC)[C@@H](OC)[C@@H](O[C@H]4[C@H](OC)[C@@H](OC)[C@@H](O[C@H]5[C@H](OC)[C@@H](OC)[C@@H](O[C@H]6[C@H](OC)[C@@H](OC)[C@@H](O[C@H]7[C@H](OC)[C@@H](OC)[C@@H](O[C@H]8[C@H](OC)[C@@H](OC)[C@@H](O[C@H]9[C@H](OC)[C@@H](OC)[C@@H](O[C@H]1[C@H](OC)[C@H]2OC)O[C@@H]9COC)O[C@@H]8COC)O[C@@H]7COC)O[C@@H]6COC)O[C@@H]5COC)O[C@@H]4COC)O[C@@H]3COC [TRIME-γ-CD, permethylated-γ-CD]	20 ± 4	25 ± 10	< 10	45 ± 14	< 10	–	–	–	–
sulfopropylated-γ-CD [SP-γ-CD]	70 ± 10	70 ± 10	< 10	140 ± 20	45 ± 4	–	–	–	–
C[N+]1(C[C@H]2O[C@@H]3O[C@H]4[C@H](O)[C@@H](O)[C@@H](O[C@H]5[C@H](O)[C@@H](O)[C@@H](O[C@H]6[C@H](O)[C@@H](O)[C@@H](O[C@H]7[C@H](O)[C@@H](O)[C@@H](O[C@H]8[C@H](O)[C@@H](O)[C@@H](O[C@H]9[C@H](O)[C@@H](O)[C@@H](O[C@H]2[C@H](O)[C@H]3O)O[C@@H]9CO)O[C@@H]8CO)O[C@@H]7CO)O[C@@H]6CO)O[C@@H]5CO)O[C@@H]4CO)CCCCC1 [MePIP-β-CD, mono-6^A-(N-methyl-piperidine)-β-CD]	50 ± 5	40 ± 3	40 ± 3	85 ± 5	45 ± 5	–	–	–	–
CO[C@H]1[C@H]2O[C@H]3[C@H](OS(=O)(=O)O)[C@@H](OC)[C@@H](O[C@H]4[C@H](OS(=O)(=O)O)[C@@H](OC)[C@@H](O[C@H]5[C@H](OS(=O)(=O)O)[C@@H](OC)[C@@H](O[C@H]6[C@H](OS(=O)(=O)O)[C@@H](OC)[C@@H](O[C@H]7[C@H](OS(=O)(=O)O)[C@@H](OC)[C@@H](O[C@H]8[C@H](OS(=O)(=O)O)[C@@H](OC)[C@@H](O[C@@H]([C@@H]1OS(=O)(=O)O)[C@@H](COS(=O)(=O)O)O2)O[C@@H]8COS(=O)(=O)O)O[C@@H]7COS(=O)(=O)O)O[C@@H]6COS(=O)(=O)O)O[C@@H]5COS(=O)(=O)O)O[C@@H]4COS(=O)(=O)O)O[C@@H]3COS(=O)(=O)O [HMDiSu-β-CD, heptakis-(2-O-methyl, 3,6-O-disulfo)-β-CD]	260 ± 10	265 ± 20	–	165 ± 25	–	–	–	–	–
OCCCNC[C@H]1O[C@@H]2O[C@H]3[C@H](O)[C@@H](O)[C@@H](O[C@H]4[C@H](O)[C@@H](O)[C@@H](O[C@H]5[C@H](O)[C@@H](O)[C@@H](O[C@H]6[C@H](O)[C@@H](O)[C@@H](O[C@H]7[C@H](O)[C@@H](O)[C@@H](O[C@H]8[C@H](O)[C@@H](O)[C@@H](O[C@H]1[C@H](O)[C@H]2O)O[C@@H]8CO)O[C@@H]7CO)O[C@@H]6CO)O[C@@H]5CO)O[C@@H]4CO)O[C@@H]3CO [HPA-β-CD, mono-6^A-(3-hydroxy)propylamino-β-CD]	145 ± 15	85 ± 15	500 ± 105	840 ± 65	140 ± 35	570 ± 80	–	–	–
sulfobutyl-ether-β-CD [SBE-β-CD (DS~4)]	560 ± 60	–	175 ± 25	–	300 ± 60	–	550 ± 40	325 ± 60	–
NC[C@H]1O[C@@H]2O[C@H]3[C@H](O)[C@@H](O)[C@@H](O[C@H]4[C@H](O)[C@@H](O)[C@@H](O[C@H]5[C@H](O)[C@@H](O)[C@@H](O[C@H]6[C@H](O)[C@@H](O)[C@@H](O[C@H]7[C@H](O)[C@@H](O)[C@@H](O[C@H]8[C@H](O)[C@@H](O)[C@@H](O[C@H]1[C@H](O)[C@H]2O)O[C@@H]8CO)O[C@@H]7CO)O[C@@H]6CO)O[C@@H]5CO)O[C@@H]4CO)O[C@@H]3CO [MA-β-CD, mono-(6-N-amino-6-deoxy)-β-CD]	180 ± 40	140 ± 25	425 ± 80	350 ± 60	225 ± 35	200 ± 30	–	–	340 ± 50
randomly methylated-β-CD [RAME-β-CD]	140 ± 7	325 ± 15	40 ± 5	585 ± 35	100 ± 5	–	–	–	350 ± 15
carboxyethylated-β-CD [CE-β-CD]	590 ± 40	975 ± 95	150 ± 10	–	400 ± 30	–	–	430 ± 25	–
OC[C@H]1O[C@@H]2O[C@H]3[C@H](O)[C@@H](O)[C@@H](O[C@H]4[C@H](O)[C@@H](O)[C@@H](O[C@H]5[C@H](O)[C@@H](O)[C@@H](O[C@H]6[C@H](O)[C@@H](O)[C@@H](O[C@H]7[C@H](O)[C@@H](O)[C@@H](O[C@H]8[C@H](O)[C@@H](O)[C@@H](O[C@H]1[C@H](O)[C@H]2O)O[C@@H]8CO)O[C@@H]7CO)O[C@@H]6CO)O[C@@H]5CN1CCCC1)O[C@@H]4CO)O[C@@H]3CO [PYR-β-CD, 6-monodeoxy-6-pyrrolidine-β-CD]	215 ± 30	–	640 ± 145	105 ± 15	115 ± 20	430 ± 50	–	–	–
COCC1OC2OC3C(COC)OC(OC4C(COC)OC(OC5C(COC)OC(OC6C(COC)OC(OC7C(COC)OC(OC8C(COC)OC(OC1C(OC)C2OC)C(OC)C8OC)C(OC)C7OC)C(OC)C6OC)C(OC)C5OC)C(OC)C4OC)C(OC)C3OC (stereo not drawn) [TRIME-β-CD, permethylated-β-CD]	60 ± 15	20 ± 2	< 10	40 ± 10	20 ± 3	–	–	–	–
sulfated-β-CD [S-β-CD]	–	–	860 ± 100	–	–	–	–	–	–

— publication PMC10893103, “Cyclodextrin-Enabled Enantioselective Complexation Study of Cathinone Analogs” (Molecules, 2024)
